This is an account of results in patent US20030045564A1, “Saururus chinensis extract for prevention and treatment of neurodegenerative disease” (priority 2000, published 2003).

Experiment [1] concerns glutamate-insulted rat cortical cells. The following applies: previously patented neuroprotectant, comparison; cited from earlier work.
The test system of experiment [2] is NO content released from glutamate-insulted rat cortical cells. Put plainly: Measurement of nitric oxide (nitrite in culture broth, Griess reagent). To be noted: for Nitrite / Nitrite post-treatment: post-treatment; for Nitrite: control 75.5, glutamate-treated 145.7; for Nitrite post-treatment / Nitrite pre-treatment: control 70.5, glutamate-treated 165.9. The format is cell-based.
Method: The content of nitrite isolated into culture broth from first cultured cortical cells was assayed by using Griess reagent by Dawson's method(Dawson V L, Brahbhatt H P, Mong J A and Dawson T M (1994) Expression of inducible nitric oxide synthase causes delayed neurotoxicity in primary neuronal-glial cortical cultures. Neuropharmacology 33: 1425-1430).

In experiment [3] the test system is glutamate-insulted rat cortical cells. Put plainly: Neuroprotection against glutamate-induced neurotoxicity, cell viability by MTT assay in primary cultured cortical cells. The arrangement: neuroprotective activity (in words): dose or concentration left out as unconfirmed. The format is cell-based. On the procedure: Primary cultures of mixed cortical cells containing both neuron and glia were prepared from fetal rats as described previously (Kim Y C, Kim S R, Markelonis G J and Oh T H (1998) Ginsenosides Rb1 and Rg3 protect cultured rat cortical cells from glutamate-induced neurodegeneration. J. Neurosci. Res. 53: 426-432).
The cortical cells were plated onto collagen-coated dishes at a density of 1×10^6 cells/ml. The cultured cells were grown in DMEM supplemented with 10% heat-inactivated fetal calf serum, 1 mM sodium pyruvate, 100 IU/ml pecicillin and 100 μg/ml streptomycin at 37° C. in a humidified atmosphere of 95% air/5% CO2. cultures were allowed to mature for 2 weeks before being used for experiments.
Total extract of S. chinensis, fraction and isolated materials were dissolved in DMSO(within final culture concentration, 0.1%) and diluted with distilled water and by passing the solution through Milliporemembrane(0.22 μm, Millex-GV, USA) to make sterile state. The solution was cultured by differentiating the concentration and dosed to neuron cells.
To culture broth of the cortical cells during being cultured, MTT(5 mg/ml) was added by 10% of the culture broth. The broth was cultured for more 3 hours. The formed formazan was dissolved by DMSO and was assayed absorption at 540 nm((Mosmann T (1983) Rapid colorimetric assay for cellular growth and survival: Application to proliferation and cytotoxicity assays. J. Immuno. Methods 65: 55-61)
The neuroprotective activity of these two aristolactam alkaloids against glutamate-induced toxicity was initially evaluated by a timed exposure to alkaloids before or after excitotoxic challenge. Some cultures were pretreated with alkaloids for one hr before a brief exposure (30 min) to glutamate, washed and maintained in DMEM for 24 hr in the absence of alkaloids (pre-treatment) (Table 3). Also, cultures were first exposed to glutamate for 30 min, washed and maintained in DMEM for 24 hr in the presence of alkaloids (post-treatment) (Table 4).
Cortical cells directly isolated from rat fetal were cultured for 14 days. The samples to be tested were treated at different concentrations to cultured cells. After one hour, neurotoxicity was induced by treating 100 μM of glutamate. After 24 hours, the survival cell rate were measured by MTT assay to determine neuroprotective activity of the samples.
Control is the value for primary cultures of rat cortical cells. Control value for MTT was 1.03±0.08 optical density (OD). Glutamate-treated is the value for primary cultures of rat cortical cells exposed to glutamate for 30 min. Glutamate-treated value for MTT was 0.58±0.02 OD.
Viability is calculated as 100×(OD of sample treated−OD of Glutamate-treated)/(OD of control−OD of Glutamate-treated).
For orientation: Formazan colour is commonly taken as a measure of viable cells.

The next experiment concerns catalase. Nature of the experiment: Effect on activity of antioxidant enzyme catalase. The following applies: data not shown. The format is cell-based, rat.
In another experiment the test system is SOD. Put plainly: Effect on activity of antioxidant enzyme SOD. The format is cell-based, rat. To be noted: data not shown.
Another experiment concerns GSH-px. Put plainly: Effect on activity of antioxidant enzyme GSH-px. The following applies: data not shown. The format is cell-based, rat.
In experiment [4] the test system is [Ca2+]i in glutamate-insulted rat cortical cells. Put plainly: Measurement of Ca2+ concentration in cells (Fura-2 AM). The format is cell-based. The following applies: for [Ca2+]i: pre-treatment, control 75.5, glutamate-treated 425.4.
Experiment [5] has as its system peroxide content on glutamate-insulted rat cortical cells. Put plainly: Cellular peroxide content in glutamate-injured cortical neurons. The format is cell-based.
[6] abbreviates: both pre- and post-treatment paradigms.

Turning to `COc1ccc(/C=C/C(=O)O)cc1` [E-p-MCA, (E)-p-methoxycinnamic acid], the “protective activity by treatment paradigm (in words)” value in experiment [1] is reported as “significant protective activity only in pre-treatment paradigm”.

On to `N=C(NCCC[C@H](N)C(=O)O)N[N+](=O)[O-]` [N^ω-nitro-L-arginine, reference compound], for which the Nitrite was 103.9 ± 3.5 nM in experiment [2] (1.0 μM), 88.5 ± 4.1 nM in experiment [2] (10.0 μM) and 109.7 ± 1.9 nM in experiment [2] (100.0 μM).

`COc1cc2c3c(cc4ccccc4c3c1OC)NC2=O` [aristolactam BII, 10-amino-3,4-methoxy-3-hydroxy-phenanthrene-1-carboxylic acid lactam]: the “Neuroprotection (% protection against glutamate-induced neurotoxicity)” value in experiment [3] (post-treatment (right after 30 min glutamate insult), 0.1 μM) turned out to be 58.5 ± 5.8 %; in experiment [3] (post-treatment (right after 30 min glutamate insult), 1.0 μM), 68.4 ± 3.5 %; in experiment [3] (post-treatment (right after 30 min glutamate insult), 10.0 μM) it was 47.8 ± 2.9 %; in experiment [3] (pre-treatment (1 hr prior to glutamate insult), 0.1 μM), 0.0 ± 7.8%; in experiment [3] (pre-treatment (1 hr prior to glutamate insult), 1.0 μM), 0.0 ± 3.2%; in experiment [3] (pre-treatment (1 hr prior to glutamate insult), 10.0 μM), 32.2 ± 0.8 %. The “Neuroprotection (% protection against glutamate-induced neurotoxicity)” value in experiment [3] (throughout treatment, 0.1 μM) is listed as “no effect”; in experiment [3] (throughout treatment, 1.0 μM) it was 60.8 ± 2.1 %; in experiment [3] (throughout treatment, 10.0 μM), 52.2 ± 3.2 %. For the same compound, the “protection from glutamate-induced neurotoxicity (in words)” value in experiment [3] (pre-treatment paradigm) is on record as “did not significantly protect”. The “neuroprotective activity (in words)” value in experiment [3] (throughout treatment paradigm) is on record as “significant neuroprotective activity”. Besides, the values for the Nitrite in experiment [2] (0.1 μM), in experiment [2] (1.0 μM) and in experiment [2] (10.0 μM) were 87.0 ± 0.8 nM, 86.8 ± 2.2 nM and 103.2 ± 1.2 nM, respectively. Further, the “NO content in cultures treated with glutamate plus compound (in words)” value in experiment [2] (versus glutamate alone) is given as “increased only slightly”. Also, in the experiment with catalase, the “protective effect on activity of catalase (in words)” value is “no significant protective effects”. For the same compound, the “protective effect on activity of SOD (in words)” value in the experiment on SOD is recorded as “no significant protective effects”. Moreover, the “protective effect on activity of GSH-px (in words)” value in the experiment on GSH-px is listed as “no significant protective effects”.

saurolactam-3-O-(E)-p-methoxycinnamate: the “Neuroprotection (% protection against glutamate-induced neurotoxicity)” value is listed as 29.8 ± 8.2 % in experiment [3] (Table 6, pre-treatment, 0.1 μM); 67.2 ± 9.6 % in experiment [3] (Table 6, pre-treatment, 1.0 μM); 80.6 ± 9.5 % in experiment [3] (Table 6, pre-treatment, 10.0 μM); 62.1 ± 1.8 % in experiment [3] (Table 7, post-treatment, 0.1 μM); 70.3 ± 3.2 % in experiment [3] (Table 7, post-treatment, 1.0 μM); 48.2 ± 1.5 % in experiment [3] (Table 7, post-treatment, 10.0 μM). In experiment [3] (setting [6]), the “neuroprotective activity on glutamate-induced neurotoxicity (in words)” value is given as “significant neuroprotective activity”. The “block of NO synthesis (in words)” value in experiment [2] (setting [6]) is given as “significantly block”. Moreover, the Nitrite post-treatment in experiment [2] (0.1 μM) is recorded as 143.6 ± 5.7 nM; in experiment [2] (1.0 μM), 97.5 ± 26.3 nM; in experiment [2] (10.0 μM), 118.1 ± 2.1 nM. Also, the Nitrite pre-treatment was 125.0 ± 6.8 nM in experiment [2] (0.1 μM), 74.8 ± 6.5 nM in experiment [2] (1.0 μM) and 71.4 ± 2.1 nM in experiment [2] (10.0 μM). The “block of increase of intracellular Ca2+ induced by excess glutamate (in words)” value in experiment [4] is listed as “successfully block”. The “[Ca2+]i” value in experiment [4] (0.1 μM) is 233.3 ± 14.9 nM; in experiment [4] (1.0 μM), 145.8 ± 26.3 nM; in experiment [4] (10.0 μM), 96.1 ± 4.1 nM. In addition, the “cellular peroxide level (in words)” value in experiment [5] was “reduced”.
